Paper PMC2228077, “The bioavailability of oral GI147211 (GG211), a new topoisomerase I inhibitor” (British Journal of Cancer, 1997)
Values joined by “and” are separate entries in the source; they are usually repeats but may differ in a detail not shown here. Equal values may be shown once. Where a name gives a salt, the structure may show the parent alone.

Experiments:
solid tumour = assay: Tumour response (WHO criteria) in patients; format: in vivo, human; conditions: 17 evaluable patients
Description: British Journal of Cancer (1997) 76(7), 946-951 ? 1997 Cancer Research Campaign The bloavailability of oral Gil 47211 (GG21 1), a new topoisomerase I inhibitor CJH Gerrits', JHM Schellens', GJ Creemers', P Wissel2, ASTh Planting', JF Pritchard2, S DePee2, M de Boer-Dennert', M Harteveld' and J Verweij' 'Department of Medical Oncology, Rotterdam Cancer Institute (Daniel den Hoed Kliniek) and University Hospital, The Netherlands; 2Glaxo Wellcome, Department of Pharmacokinetics, NC, USA Summary Topoisomerase I inhibitors are new compounds of interest for cancer chemotherapy. We performed a study with Gl147211, a new semisynthetic camptothecin analogue, to determine the absolute bioavailability of the drug given orally. […] Gi147211 was given orally on day 1 and as a 30-min infusion daily on days 2-5. The treatment course was repeated every 3 weeks. In subsequent patient cohorts, the dose of the oral formulation was escalated from 1.5 mg m-2 to 6.0 mg m-2; the dose for i.v. administration was fixed at 1.2 mg m-2. Plasma pharmacokinetics was performed on day 1 and 2 of the first course and on day 1 of the second course using a validated high-performance liquid chromatographic assay. […]

[1] = test system: xenografts of human cancers, including HT-29 and SW-48 colon, PC-3 prostate, MX-1 breast, H460 lung, SKOV3 ovarian and KB epidermoid carcinomas; design: method as in Emerson et al, 1993, 1995; conditions: ref Emerson et al, 1993, 1995; cited from earlier work
[2] = Plasma pharmacokinetics and absolute bioavailability, oral day 1 vs 30-min i.v. infusion day 2, patients with solid tumours; design: mean maximal plasma concentration (Cmax) after intravenous dosing: dose or concentration left out as unconfirmed
Description: British Journal of Cancer (1997) 76(7), 946-951 ? 1997 Cancer Research Campaign The bloavailability of oral Gil 47211 (GG21 1), a new topoisomerase I inhibitor CJH Gerrits', JHM Schellens', GJ Creemers', P Wissel2, ASTh Planting', JF Pritchard2, S DePee2, M de Boer-Dennert', M Harteveld' and J Verweij' 'Department of Medical Oncology, Rotterdam Cancer Institute (Daniel den Hoed Kliniek) and University Hospital, The Netherlands; 2Glaxo Wellcome, Department of Pharmacokinetics, NC, USA Summary Topoisomerase I inhibitors are new compounds of interest for cancer chemotherapy. We performed a study with Gl147211, a new semisynthetic camptothecin analogue, to determine the absolute bioavailability of the drug given orally. […] Gi147211 was given orally on day 1 and as a 30-min infusion daily on days 2-5. The treatment course was repeated every 3 weeks. In subsequent patient cohorts, the dose of the oral formulation was escalated from 1.5 mg m-2 to 6.0 mg m-2; the dose for i.v. administration was fixed at 1.2 mg m-2. Plasma pharmacokinetics was performed on day 1 and 2 of the first course and on day 1 of the second course using a validated high-performance liquid chromatographic assay. […] Keywords: G1147211 (GG211); bioavailability; topoisomerase I inhibitor; phase I study G1147211 [7-(methylpiperazinomethylene)-10,11-ethylenedioxy- 20(S)-camptothecin dihydrochloride] is a water-soluble semisyn- thetic analogue of camptothecin (CPT). […] Its further development was stopped because of unpredictable and severe myelosuppression, gastro- intestinal toxicity and haemorrhagic cystitis (Gottlieb et al, 1970; Creaven et al, 1972; Muggia et al, 1972). Interest in CPT was renewed in the 1980s, because topoiso- merase I was identified as the single cellular target of CPT (Hsiang et al, 1988 1989), and an overexpression of topoisomerase I was found in various tumour cell lines but not in normal tissues (Giovanella et al, 1989; Hirabayashi et al, 1992). Topoisomerase I is a nuclear enzyme that resolves topological problems of the torsionally strained (supercoiled) DNA by forming a covalent adduct between topoisomerase I and the DNA, termed the cleav- able complex. This catalytic intermediate creates single-strand DNA breaks, allowing the DNA molecule to rotate around the intact DNA strand at the cleavage site, leading to a relaxation of Received 29 November 1996 Revised 27 March 1997 Accepted 1 April 1997 Correspondence to: CJH Gerrits, Department of Medical Oncology, Rotterdam Cancer Institute, (Daniel den Hoed Kliniek) and University Hospital, Groene Hilledijk 301, 3075 EA Rotterdam, The Netherlands the DNA molecule, and in this way replication, transcription and other DNA functions can proceed. These enzyme-bridged breaks are then resealed by topoisomerase I (Champoux, 1976; Muller, 1985; Muller et al, 1985; Camilloni et al, 1989). […] It has been documented that camptothecin (CPT) interferes with the breakage-reunion process of topoiso- merase I by stabilizing the enzyme-DNA cleavable complexes (Liu et al, 1989).

[3] = intravenous route; cited from earlier work
[4] = mouse, in vivo; cited from earlier work
[5] = design: method as in Gerrits et al, 1996; conditions: i.v. daily x5 every 3 weeks; ref Gerrits et al, 1996; cited from earlier work
[6] = individual patients 1-19, i.v. 1.2 mg m-2, Table 3
[7] = individual patients, oral 6 mg m-2, Fed (after breakfast), Tables 3 and 4
[8] = individual patients, oral 6 mg m-2, fasted, Table 3
[9] = oral 6.0 mg m-2, lactone, Table 4

Compound: CC[C@@]1(O)C(=O)OCc2c1cc1n(c2=O)Cc2c-1nc1cc3c(cc1c2CN1CCN(C)CC1)OCCO3 [GI147211, 7-(methylpiperazinomethylene)-10,11-ethylenedioxy-20(S)-camptothecin dihydrochloride]
- best response to treatment (solid tumour): stable disease in seven patients
- activity against xenografts of human cancers [1]: significant cytotoxicity
- Oral AUC total, mean ([2]; all oral doses 1.5-6 mg m-2, total = lactone plus acid, Table 3): 36.33 ng·h/mL
- intrapatient variability of the absolute bioavailability, median ([2]; course 1 vs course 2): 31%
- intrapatient variability of the absolute bioavailability, range ([2]; course 1 vs course 2): 3-88%
- absolute bioavailability, range between patients ([2]; human, in vivo): 4.8-24.3%
- mean maximal plasma concentration (Cmax) after intravenous dosing ([2]; human, in vivo): 21.76 ng/mL
- i.v. AUC, mean ([2]; human, in vivo, iv, 1.2 mg): 31.84 ng·h/mL
- cases with Tmax < 0.5 h ([2]; human, in vivo, po): 13 of 19
- dose dependence of oral bioavailability ([2]; human, in vivo, po): not dose dependent
- median Tmax ([2]; human, in vivo, po): 0.5 h
- terminal half-life after oral administration (lactone), range ([2]; human, in vivo, po): 2.0 to 13.0 h
- Oral Tmax ([2]; human, in vivo, po, 1.5 mg): 0.25 h
- Absolute bioavailability fasted, mean ([2]; human, in vivo, po, 6 mg): 11.4%
- Absolute bioavailability fed, mean ([2]; human, in vivo, po, 6 mg): 11.2%
- Oral Tmax fasted, mean ([2]; human, in vivo, po, 6 mg): 0.65 h
- Oral Tmax fed, mean ([2]; human, in vivo, po, 6 mg): 0.69 h
- influence of fasting or fed state on bioavailability ([2]; human, in vivo, po, 6 mg): no significant influence
- influence of fed or fasted state on Tmax ([2]; human, in vivo, po, 6 mg): not significantly influenced
- mean maximal plasma concentration (Cmax) after oral dosing ([2]; human, in vivo, po, 6 mg): 4.02 ? 3.57 ng ml-1
- i.v. t1/2, mean ([2]; i.v. 1.2 mg m-2, 13 patients of 6.0 mg m-2 level, Table 4): 8.53 h
- Oral AUC total ([2]; individual patient 18, oral 6 mg m-2, Fed, lactone plus acid, Table 3): 14.69 ng·h/mL
- i.v. AUC [2, 6]: 19.11 ng·h/mL
- i.v. t1/2 [2, 6]: 6.2 h (2×) and 6.0 h and 14.3 h and 5.6 h and 6.7 h and 7.0 h and 5.2 h and 9.5 h and 10.9 h and 10.5 h and 8.9 h and 6.8 h and 4.5 h and 18.6 h and 14.6 h and 7.2 h and 1.9 h and 4.9 h
- Oral t1/2 ([2]; individual patients, oral 1.5 mg m-2, Table 3): 2.5 h and 4.0 h
- Oral AUC total ([2]; individual patients, oral 1.5 mg m-2, lactone plus acid, Table 3): 3.12 ng·h/mL and 11.16 ng·h/mL
- Oral t1/2 ([2]; individual patients, oral 3 mg m-2, Table 3): 12.2 h and 7.7 h and 9.5 h and 5.1 h
- Oral AUC total ([2]; individual patients, oral 3 mg m-2, lactone plus acid, Table 3): 70.82 ng·h/mL and 12.81 ng·h/mL and 15.21 ng·h/mL and 24.05 ng·h/mL
- Oral t1/2 ([2]; individual patients, oral 3 mg m-2, second course (C2), Table 3): 2.0 h and 11.7 h
- Absolute bioavailability Lactone [2, 7]: 10.5% and 11.9%
- Oral t1/2 [2, 7]: 8.7 h and 6.0 h (2×) and 8.2 h and 11.1 h and 11.9 h and 4.1 h and 3.4 h and 3.5 h
- Absolute bioavailability Lactone [2, 8]: 11.1%
- Absolute bioavailability Total [2, 8]: 11.1%
- Oral t1/2 [2, 8]: 4.2 h and 4.5 h and 4.3 h (2×) and 6.1 h and 10.4 h and 9.7 h and 7.8 h and 6.2 h and 13.0 h and 6.7 h and 5.0 h and 3.7 h
- Oral AUC total ([2]; individual patients, oral 6 mg m-2, fasted, lactone plus acid, Table 3): 157.68 ng·h/mL and 30.60 ng·h/mL and 36.73 ng·h/mL and 39.35 ng·h/mL and 55.59 ng·h/mL and 27.76 ng·h/mL and 13.89 ng·h/mL and 28.78 ng·h/mL and 30.71 ng·h/mL and 40.52 ng·h/mL and 40.50 ng·h/mL
- Oral t1/2 ([2]; individual patients, oral 6 mg m-2, second course (C2), Table 3): 7.8 h and 7.2 h
- courses in which plasma concentrations could be measured at 24 h ([2]; oral): 21 % of courses
- courses in which plasma concentration-time curves could be measured up to 12 h ([2]; oral 6.0 mg m-2, lactone and total): 68 % of courses
- Oral t1/2 fasted, mean [2, 9]: 6.61 h
- Oral t1/2 fed, mean [2, 9]: 6.84 h
- main toxicity in animal toxicology studies [3]: myelosuppression was the main toxicity and was dose limiting
- absolute bioavailability [4]: 2-5%
- main toxicity [5]: myelosuppression
